Article PMC8592419 (PLoS ONE, 2021)
≈ marks a conversion by molar mass, not a printed value. Where a SMILES comes first, the peptide text is derived from it.

Legend:
[1] = tested on: M. abscessus clinical isolate MAB13; format: cell-based, M. abscessus subsp. massiliense; conditions: 3 days at 37°C
Protocol: (§1) Briefly, serial dilutions of the AMPs were prepared with potassium phosphate buffer (PPB) from the concentration range of 3.125 to 400 μg/ml and then 50 μl of each dilution were added to each 96-well plate. Colonies of the isolate were suspended and then further diluted in Mueller-Hinton broth to obtain a final concentration of 1×10^3 CFU/ml (optimized according to the available AMP stock concentration). Fifty microliters of this inoculum were added to each well of the plates. The plates were incubated for 3 days at 37°C. Plain media and bacterial suspensions without AMPs were used as negative and positive controls. The MIC values were read and recorded. All assays were performed in duplicate and two independent experiments.
(§2) For the in vitro antimicrobial susceptibility, the same protocol as described above was used. The culture plates were further incubated up to 3 days at 37°C. The MIC values were read and recorded.

[2] = tested on: M. abscessus clinical isolate MAB14; assay: microbe, parasite or virus in culture; format: cell-based, M. abscessus subsp. massiliense
Protocol: (§3) Mab suspensions at a 5×10^5 CFU/ml final concentration were added to each well and incubated for 3 days and 14 days at 37°C. MIC values were defined when the percent killing of CFUs of more than 90% were compared to the media controls without AMPs or drugs. The fraction inhibitory concentration index (FICI) was calculated using the following formula: FICI = [C(MIC^A)/MIC^A] + [C(MIC^B)/MIC^B]. […] For interpretation, FICI ≤ 0.5 was interpreted as synergism, FICI >0.5–1.0 was interpreted as additive, FICI >1.0–4.0 was interpreted as indifferent and FICI >4.0 was interpreted as antagonism.

[3] = tested on: M. abscessus clinical isolate MAB12; assay: microbe, parasite or virus in culture; format: cell-based, M. abscessus subsp. massiliense
Protocol: as §3

[4] = tested on: M. abscessus clinical isolate MAB04; assay: In vitro antimicrobial susceptibility of potential AMPs, broth microdilution, 3 days; format: cell-based, M. abscessus subsp. abscessus; conditions: 3 days at 37°C
Protocol: as §1, §2

[5] = tested on: M. abscessus clinical isolate MAB08; assay: as above; format: cell-based, M. abscessus subsp. abscessus; conditions: 3 days at 37°C
Protocol: as §1, §2

[6] = tested on: human peripheral blood mononuclear cells (PBMCs); assay: PBMC toxicity, trypan blue exclusion assay; format: cell-based; conditions: 1 h at 37°C, mean±SD of duplicates, two independent experiments
Protocol: For the toxicity of the potential AMPs to human peripheral blood mononuclear cells (PBMCs), the trypan blue exclusion assay was used. Fresh human PBMCs were prepared from blood samples of healthy volunteers using the Ficoll density gradient technique. The cells were centrifuged at 1,800 rpm for 20 min at 20°C and washed three times with PBS and adjusted with RPMI-1640 medium into 6.25×10^5 cells/ml. Fifty microliters of PBMC suspension and 50 μl of AMP solutions (6.25–400 μg/ml) were added to the 96-well microtiter plates and incubated for 1 h at 37°C. Then, 20 μl of the samples were mixed with 20 μl of 0.4% (w/v) trypan blue solution (0.81% NaCl and 0.06% (w/v) dibasic potassium phosphate) in microtubes and incubated for 3 min at room temperature. The PBMC suspensions treated with PBS were used as negative controls. PBMCs were counted using a dual-chamber hemocytometer under a light microscope. Viable and non-viable cells were counted under a microscope and the percentage of viable cells was calculated using the following formula: % of viable cells = [1.00 –([…] / Number of total cells)] × 100. All assays were performed in duplicate with two independent experiments.

[7] = tested on: clinical isolates of M. abscessus; assay: In vitro susceptibility of potential AMPs, 3 days, summary over isolates; format: cell-based, Mycobacterium abscessus; conditions: isolates MAB01 and MAB03
Protocol: as §1, §2

[8] = tested on: M. abscessus clinical isolate MAB09; assay: microbe, parasite or virus in culture; format: cell-based, M. abscessus subsp. abscessus
Protocol: as §3

[9] = tested on: M. abscessus clinical isolate MAB10; assay: microbe, parasite or virus in culture; format: cell-based, M. abscessus subsp. abscessus
Protocol: as §3

[10] = tested on: M. abscessus clinical isolate MAB01; assay: microbe, parasite or virus in culture; format: cell-based, M. abscessus subsp. abscessus
Protocol: as §3

[11] = tested on: M. abscessus clinical isolate MAB05; assay: microbe, parasite or virus in culture; format: cell-based, M. abscessus subsp. abscessus
Protocol: as §3

[12] = tested on: M. abscessus clinical isolate MAB03; assay: microbe, parasite or virus in culture; format: cell-based, M. abscessus subsp. abscessus
Protocol: as §3

[13] = tested on: M. abscessus clinical isolate MAB11; assay: microbe, parasite or virus in culture; format: cell-based, M. abscessus subsp. abscessus
Protocol: as §3

[14] = tested on: M. abscessus clinical isolate MAB02; assay: microbe, parasite or virus in culture; format: cell-based, M. abscessus subsp. abscessus
Protocol: as §3

[15] = tested on: M. abscessus clinical isolate MAB07; assay: microbe, parasite or virus in culture; format: cell-based, M. abscessus subsp. abscessus
Protocol: as §3

Mab ATCC19977 strain = format: cell-based, Mycobacterium abscessus
In short: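 AMPs were serially diluted in potassium phosphate buffer over 3.125–400 μg/ml (pre-mixing concentrations) and combined with an equal volume of isolate inoculum in Mueller-Hinton broth at 1×10^3 CFU/ml. After 3 days at 37 °C the MIC was read; runs were in duplicate across two independent experiments.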

[16] = tested on: M. abscessus clinical isolate MAB06; format: cell-based, M. abscessus subsp. abscessus; conditions: 3 days at 37°C
Protocol: as §1, §2

[17] = Mycobacteroides abscessus, read-out: MIC of CLA

CC[C@H](C)[C@H](NC(=O)[C@H](CCCCN)NC(=O)[C@H](CCCNC(=N)N)NC(=O)CNC(=O)[C@H](CC(C)C)NC(=O)[C@H](CO)NC(=O)[C@H](CCCNC(=N)N)NC(=O)[C@H](CC(C)C)NC(=O)CNC(=O)CN)C(=O)N[C@@H](CC(C)C)C(=O)N[C@@H](CCCNC(=N)N)C(=O)N[C@@H](C)C(=O)N[C@@H](Cc1c[nH]c2ccccc12)C(=O)N[C@@H](CCCCN)C(=O)O [S63] (H-GGLRSLGRKILRAWK-OH)
Antimicrobial peptides against M. abscessus isolates, MIC value [1]: >400 µg/mL
FICI ([2]; MAB14, AMP + CLA, mean ± S.D., two independent experiments): 0.19±0.00
MIC, AMP alone ([2]; MAB14, AMP alone): >400 µg/mL
FICI ([3]; MAB12, AMP + CLA, mean ± S.D., two independent experiments): 1.01±0.00
MIC, AMP alone ([3]; MAB12, AMP alone): >400 µg/mL
Antimicrobial peptides against M. abscessus isolates, MIC value [4]: >400 µg/mL
Antimicrobial peptides against M. abscessus isolates, MIC value [5]: >400 µg/mL
Viable cells of PBMCs (% viable cells) ([6]; 6.25 µg/mL): 103.67±6.60%
Viable cells of PBMCs (% viable cells) ([6]; 12.5 µg/mL): 101.78±5.46%
Viable cells of PBMCs (% viable cells) ([6]; 25 µg/mL): 88.38±7.60%
Viable cells of PBMCs (% viable cells) ([6]; 50 µg/mL): 93.65±6.02%
Viable cells of PBMCs (% viable cells) ([6]; 100 µg/mL): 66.28±2.71%
Viable cells of PBMCs (% viable cells) ([6]; 200 µg/mL): 71.94±8.32%
Viable cells of PBMCs (% viable cells) ([6]; 400 µg/mL): 48.78±0.59%
MIC values after 3 days [7]: 3.65 to 7.30 µM
FICI ([8]; MAB09, AMP + CLA, mean ± S.D., two independent experiments): 0.52±0.00
MIC, AMP alone ([8]; MAB09, AMP alone): >400 µg/mL
FICI ([9]; MAB10, AMP + CLA, mean ± S.D., two independent experiments): 0.07±0.00
MIC, AMP alone ([9]; MAB10, AMP alone): >400 µg/mL
FICI ([10]; MAB01, AMP + CLA, mean ± S.D., two independent experiments): 0.63±0.17
FICI ([11]; MAB05, AMP + CLA, mean ± S.D., two independent experiments): 1.01±0.00
MIC, AMP alone ([11]; MAB05, AMP alone): >400 µg/mL
FICI ([12]; MAB03, AMP + CLA, mean ± S.D., two independent experiments): 0.52±0.00
MIC, AMP alone ([12]; MAB03, AMP alone): 12.5 µg/mL
FICI ([13]; MAB11, AMP + CLA, mean ± S.D., two independent experiments): 0.76±0.35
MIC, AMP alone ([13]; MAB11, AMP alone): >400 µg/mL
FICI ([14]; MAB02, AMP + CLA, mean ± S.D., two independent experiments): 1.04±0.04
MIC, AMP alone ([14]; MAB02, AMP alone): >400 µg/mL
FICI ([15]; MAB07, AMP + CLA, mean ± S.D., two independent experiments): 0.04±0.01
MIC, AMP alone ([15]; MAB07, AMP alone): >400 µg/mL
MIC values (Mab ATCC19977 strain): 200 µg/mL (≈ 117 µM)
Antimicrobial peptides against M. abscessus isolates, MIC value [16]: >400 µg/mL

CC[C@H]1OC(=O)[C@H](C)[C@@H](O[C@H]2C[C@@](C)(OC)[C@@H](O)[C@H](C)O2)[C@H](C)[C@@H](O[C@@H]2O[C@H](C)C[C@H](N(C)C)[C@H]2O)[C@](C)(OC)C[C@@H](C)C(=O)[C@H](C)[C@@H](O)[C@]1(C)O [CLA, Clarithromycin]
MIC of CLA, combined CLA + S61 ([2]; MAB14, checkerboard, in combination with S61): 4 µg/mL
MIC of CLA, combined CLA + S62 ([2]; MAB14, checkerboard, in combination with S62): 4 µg/mL
MIC of CLA, combined CLA + S63 ([2]; MAB14, checkerboard, in combination with S63): 32 µg/mL
MIC [2, 17]: 512 µg/mL
MIC of CLA, combined CLA + S61 ([3]; MAB12, checkerboard, in combination with S61): 1,024 μg/ml
MIC of CLA, combined CLA + S62 ([3]; MAB12, checkerboard, in combination with S62): 1,024 μg/ml
MIC of CLA, combined CLA + S63 ([3]; MAB12, checkerboard, in combination with S63): 1,024 μg/ml
MIC [3, 17]: 1020 µg/mL
MIC of CLA, combined CLA + S61 ([8]; MAB09, checkerboard, in combination with S61): 8 µg/mL
MIC of CLA, combined CLA + S62 ([8]; MAB09, checkerboard, in combination with S62): 6 µg/mL
MIC of CLA, combined CLA + S63 ([8]; MAB09, checkerboard, in combination with S63): 4 µg/mL
MIC [8, 17]: 8 µg/mL
MIC of CLA, combined CLA + S61 ([9]; MAB10, checkerboard, in combination with S61): 32 µg/mL
MIC of CLA, combined CLA + S62 ([9]; MAB10, checkerboard, in combination with S62): 32 µg/mL
MIC of CLA, combined CLA + S63 ([9]; MAB10, checkerboard, in combination with S63): 8 µg/mL
MIC [9, 17]: 1020 µg/mL
MIC of CLA, combined CLA + S61 ([10]; MAB01, checkerboard, in combination with S61): 32 µg/mL
MIC of CLA, combined CLA + S62 ([10]; MAB01, checkerboard, in combination with S62): 96 µg/mL
MIC [10, 17]: 1020 µg/mL
MIC of CLA, combined CLA + S61 ([11]; MAB05, checkerboard, in combination with S61): 16 µg/mL
MIC of CLA, combined CLA + S62 ([11]; MAB05, checkerboard, in combination with S62): 16 µg/mL
MIC of CLA, combined CLA + S63 ([11]; MAB05, checkerboard, in combination with S63): 16 µg/mL
MIC [11, 17]: 16 µg/mL
MIC of CLA, combined CLA + S61 ([12]; MAB03, checkerboard, in combination with S61): 2 µg/mL
MIC of CLA, combined CLA + S62 ([12]; MAB03, checkerboard, in combination with S62): 1.5 µg/mL
MIC of CLA, combined CLA + S63 ([12]; MAB03, checkerboard, in combination with S63): 4 µg/mL
MIC [12, 17]: 8 µg/mL
MIC of CLA, combined CLA + S61 ([13]; MAB11, checkerboard, in combination with S61): 128 µg/mL
MIC of CLA, combined CLA + S62 ([13]; MAB11, checkerboard, in combination with S62): 192 µg/mL
MIC of CLA, combined CLA + S63 ([13]; MAB11, checkerboard, in combination with S63): 192 µg/mL
MIC [13, 17]: 512 µg/mL
MIC of CLA, combined CLA + S61 ([14]; MAB02, checkerboard, in combination with S61): 64 µg/mL
MIC of CLA, combined CLA + S62 ([14]; MAB02, checkerboard, in combination with S62): 64 µg/mL
MIC of CLA, combined CLA + S63 ([14]; MAB02, checkerboard, in combination with S63): 64 µg/mL
MIC [14, 17]: 64 µg/mL
MIC of CLA, combined CLA + S61 ([15]; MAB07, checkerboard, in combination with S61): 0.25 µg/mL
MIC of CLA, combined CLA + S62 ([15]; MAB07, checkerboard, in combination with S62): 0.25 µg/mL
MIC of CLA, combined CLA + S63 ([15]; MAB07, checkerboard, in combination with S63): 0.25 µg/mL
MIC [15, 17]: 16 µg/mL
